The values below come from patent US20100196907A1, “MARKERS TO PREDICT AND MONITOR RESPONSE TO AURORA KINASE B INHIBITOR THERAPY” (ABBOTT LABORATORIES, priority 2009, published 2010).

One series has as its system bone marrow. To be noted: cited from earlier work.
For series [1] the following is noted: human plasma; cited from earlier work.
For a further series, the system named is cell line panel. The series is described as follows: 7-day colony formation or viability, cell line panel. It is filed as cell-based, human. To be noted: sensitive vs ABCB1-overexpressing lines. The procedure: (§1) SW620^ABCB1/3 and the respective parental cell lines were washed and 500 cells/well were seeded into six-well plates in drug-free medium. Then, 24 hours later, compounds were diluted in DMEM or RPMI, added to the cells, which were cultured at 37° C. for 7-10 days. Cells were then fixed and stained with 0.2% crystal violet to visualize and count colonies.

For another series, the system named is SW620^ABCB1/3 cells. The series is described as follows: histone H3 phosphorylation immunoblot, SW620^ABCB1/3. It is filed as cell-based, human. The following applies: 1 μM PSC-833 for 2 hours prior to AZD1152 HQPA. The method, then: SW620 and SW620^ABCB1/3 cells were washed and allowed to grow in drug-free medium overnight. […] The lysates were then probe-sonicated for 10 seconds then clarified by centrifugation at 15,000 g for 15 minutes at 4° C. After treatment with SDS-sample buffer, protein extracts were resolved on NuPAGE Bis-Tris 4-12% gels (Invitrogen (Carlsbad, Calif.)). Samples were electrotransferred to PVDF membranes (Invitrogen (Carlsbad, Calif.)), incubated with primary antibody overnight, and developed using Pierce Dura-Signal chemiluminescence reagents (Pierce, Rockford, Ill.), or Odyssey infrared imaging system from LI-COR Biosciences (Lincoln, Nebr.).

Series [2] has as its system HCT-15 colon carcinoma xenografts. The series is described as follows: xenograft growth, HCT-15. In kind it is in vivo, mice.
Another series relates to HCT116. The series is described as follows: xenograft growth, HCT116. It is filed as in vivo, mice.
Series [3] concerns DoHH-2 B-cell lymphoma xenografts. The series is described as follows: xenograft growth, DoHH-2. It is filed as in vivo, mice.
Another series has as its system AsPC1. The series is described as follows: colony formation, AsPC1. In kind it is cell-based, human.
The subject of the next series is HCT-15. The series is described as follows: colony formation, HCT-15. It is filed as cell-based, human.
A further series relates to SW620^ABCB1/3. The series is described as follows: colony formation, SW620^ABCB1/3. It is filed as cell-based, human. The procedure: as §1

For the compound `CCN(CCCOc1ccc2c(Nc3cc(CC(=O)Nc4cccc(F)c4)n[nH]3)ncnc2c1)CCOP(=O)(O)O` [AZD1152, 2-[[3-({4-[(5-{2-[(3-Fluorophenyl)amino]-2-oxoethyl}-1H-pyrazol-3-yl)amino]-quinazolin-7-yl}oxy)propyl](ethyl)amino)ethyl dihydrogen phosphate], the reversibility of myelosuppression entry in the series on bone marrow (following cessation of AZD1152 treatment) is recorded as “fully reversible”. Further, the myelosuppression result with bone marrow (secondary to inhibition of proliferation of the bone marrow) is recorded as “transient myelosuppression”. In addition, in series [1], the “conversion of prodrug to active drug” value is on record as “rapidly converted to the active drug”.

For the compound `O=C(O)c1ccc(Nc2ncc3c(n2)-c2ccc(Cl)cc2C(c2c(F)cccc2F)=NC3)cc1` [MLN8054, 4-{[9-choloro-7-(2,6-difluorophenyl)-5H-pyrimido[5,4-D][2]benzazepin-2-yl]amino}-benzoic acid], the “activity profile in the cell line panel” value in the series on cell line panel is recorded as “No apparent loss in potency”.

In the case of `C/C=C/C[C@@H](C)C(=O)[C@H]1C(=O)N[C@@H](C(C)C)C(=O)N(C)CC(=O)N(C)[C@@H](CC(C)C)C(=O)N[C@@H](C(C)C)C(=O)N(C)[C@@H](CC(C)C)C(=O)N[C@@H](C)C(=O)N[C@H](C)C(=O)N(C)[C@@H](CC(C)C)C(=O)N(C)[C@@H](CC(C)C)C(=O)N(C)[C@@H](C(C)C)C(=O)N1C` [PSC-833], the “reversal of resistance to AZD1152 HQPA” value in the series with SW620^ABCB1/3 cells is on record as “effective in reversing the resistance”.

Turning to `Cc1cc(Nc2cc(N3CCN(C)CC3)nc(Sc3ccc(NC(=O)C4CC4)cc3)n2)[nH]n1` [VX-680, cyclopropane carboxylic acid {4-[4-(4-methyl-piperazin-1-yl)-6-(5-methyl-2H-pyrazol-3-ylamino)-pyrimidin-2-ylsulphanyl]-phenyl}-amide], in [2], the “xenograft growth under treatment” value is “unabated”. The tumor growth inhibition entry (with HCT116; in [3]) was “significant tumor growth inhibition” throughout.

For `CC(=O)O[C@H]1C(=O)[C@@]2(C)[C@H]([C@H](OC(=O)c3ccccc3)[C@]3(O)C[C@H](OC(=O)[C@H](O)[C@@H](NC(=O)c4ccccc4)c4ccccc4)C(C)=C1C3(C)C)[C@]1(OC(C)=O)CO[C@@H]1C[C@@H]2O` [paclitaxel], the relative sensitivity entry with AsPC1 is “not AsPC1 were relatively insensitive”; in the series with HCT-15 it was “relatively insensitive”; in the series on SW620^ABCB1/3, “relatively insensitive”.
